Assay results taken from patent US7049322B2 (priority 2002, dated 2006).

Key:
[1] = clinical trials, cited from earlier work
[2] = Moisture sorption/desorption (VTI SGA-100 moisture balance); type: physicochemical; conditions: for hygroscopicity: 5 to 95% RH
Source text: The samples were not dried prior to analysis.

[3] = Dehydration/desolvation under vacuum, XRPD; type: physicochemical
Source text: The characterization of this weight loss as THF solvent is supported by the ^1H NMR data.

[4] = XRPD after storage in a closed vial at ambient conditions; type: physicochemical; conditions: 31 days
Method: X-ray powder diffraction analyses were carried out on a Shimadzu XRD-6000 X-ray powder diffractometer using Cu Kα radiation having a wavelength of 1.5406 Å. The instrument is equipped with a fine-focus X-ray tube. The tube power was set by setting potential difference at 40 kV, and current 40 mA. The divergence and scattering slits were set at 1° and the receiving slit was set at 0.15 mm. Diffracted radiation was detected by a NaI scintillation detector. A theta-two theta continuous scan at 3°/min (0.4 sec/0.02° step) from 2.5 to 40 °2θ was performed. A silicon standard was analyzed each day to check the instrument alignment. Each sample was analyzed in a quartz sample holder. A variable temperature (VT-XRPD) experiment was performed on one form. The sample was prepared for analysis by pressing it into a variable temperature holder. A powder pattern was collected initially at 35° C. and again, after heating, at 200° C.

## CC[C@@](O)(C(=O)[O-])c1cc2n(c(=O)c1CO)Cc1cc3ccccc3nc1-2.[Na+] [Sodium camptothecin]
[1]; administered intravenously
  side effects: unpredictable side effects such as myelosuppression and hemorrhagic cystitis
[1]; early 1970's
  antineoplastic activity: found to have antineoplastic activity

## CC[C@@]1(O)C(=O)OCc2c1cc1n(c2=O)Cc2cc3c([N+](=O)[O-])cccc3nc2-1 [Form A, 9-nitrocamptothecin]
[2]; 5% RH
  water gained upon equilibration to 5% RH: 0.01%
[2]
  hygroscopicity: not hygroscopic

## CC[C@@]1(O)C(=O)OCc2c1cc1n(c2=O)Cc2cc3c([N+](=O)[O-])cccc3nc2-1 [Form C, 9-nitrocamptothecin]
[3]
  form after attempted desolvation: becomes amorphous

## CC[C@@]1(O)C(=O)OCc2c1cc1n(c2=O)Cc2cc3c([N+](=O)[O-])cccc3nc2-1 [Form B, 9-nitrocamptothecin]
[2]; 5% RH
  water lost upon equilibration at 5% RH: 0.98%
[2]
  hygroscopicity: relatively hygroscopic
[4]
  stability of the crystalline polymorph (XRPD pattern unchanged): relatively stable
